Laboratory results: PubChem BioAssay AID1918999 (Molecular Pharmacology Branch, DTP, NCI, 2023)

Test system: 556581-035-R-J1-PDC complex spheroid growth
Assay: Anticancer human tumor 556581-035-R-J1-PDC patient-derived ovarian carcinoma cell line growth inhibition [AhR]
Conditions: for IC50: curve of first compound; for viability, T/C: stronger effect = lower value; active = viability on the fitted dose curve at most 10% of control; inactive = the rest
Description: Multicellular complex tumor spheroid response to aryl hydrocarbon receptor antagonists in combination with a variety of drugs and investigational agents in selected tumor cell lines
The current study was undertaken to assess response to aryl hydrocarbon receptor antagonists in combination with standard-of-care drugs and investigational agents in solid tumor complex spheroid models. Complex spheroids include a stromal component modeled by human endothelial cells (HUVEC) and fibroblasts modeled by human mesenchymal stem cells (MSCs). The concentration ranges selected for each drug and investigational agent were based upon clinically achievable concentrations if the clinical Cmax of the agent was known.
Compounds. The drugs and investigational agents: BAY 2416964 (NSC825713), GNF351 (NSC835774), CH-223191 (NSC835775), CPI-455 (NSC825282), aza-TdCyd (NSC777586), decitabine (NSC127716), belinostat (NSC758774), entinostat (NSC756642), pevonedistat (NSC761192), tazemetostat (NSC777109), talazoparib (NSC765396), olaparib (NSC753686), selinexor (NSC780203), nedisertib (M3814, NSC802822), bortezomib (NSC756655), venetoclax (NSC766270), doxorubicin (NSC123127), elimusertib (BAY189344, NSC800525), ceralasertib (AZD6738, NSC777638), TAK-243 (NSC785004), alisertib (NSC759677), etoposide (NSC141540), topotecan (NSC609699), eribulin (NSC707389), gemcitabine (NSC613327), carboplatin (NSC241240), cisplatin (NSC119875), and SN-38 (NSC673596) were obtained from the National Cancer Institute (NCI) Developmental Therapeutics Program Chemical Repository (32). The FDA-approved anticancer drug set is available from the Developmental Therapeutics Program at https://dtp.cancer.gov/organization/dscb/obtaining/available plates.htm. […] The stock solutions were prepared in dimethyl sulfoxide (DMSO, Sigma-Aldrich, St. Louis, MO, cat. D2650), except for the platinum compounds which were prepared in saline (Quality Biological, Gaithersburg, MD, cat. 114-055-101), at 800-fold the tested concentration and stored at -70 degrees C prior to their use. All drugs and investigational agents were tested over a range starting from a high concentration at or near the clinical Cmax and decreasing in half-log increments. If the clinical Cmax for an agent had not been determined, the highest concentration tested was 10 microM (Table 1).
Cell Culture. All cells were maintained in an incubator at 37 degrees C and 5% CO2 with 95% humidity. The PDC lines were cultured according to standard operating procedures established by the NCI PDMR (https://pdmr.cancer.gov). Briefly, all PDCs were thawed and cultured in Matrigel-coated flasks prepared with a working solution of 1X Ham's F-12 nutrient mix, without supplementation (Invitrogen, Waltham, MA, cat. 11765054), 100 U/mL penicillin-streptomycin (Invitrogen, cat. 15140122), and 2.5% Matrigel (Corning Inc., Corning, NY, cat. 354248) for the first three passages. All PDCs were cultured in complete DMEM/F-12 media containing advanced DMEM/F-12 (Invitrogen, cat. 12634028), 4.9% defined fetal bovine serum, heat inactivated (HyClone Laboratories Inc., Logan, UT, cat. SH30070.03HI), 389 ng/mL hydrocortisone (Sigma-Aldrich, cat. H4001), 9.7 ng/mL human EGF recombinant protein (Invitrogen, cat. PHG0313), 23.4 microg/mL adenine (Sigma-Aldrich, cat. A2786), 97.3 U/mL penicillin-streptomycin (Invitrogen, cat. 15140122), 1.9 mM L-glutamine (Invitrogen, cat. 25030081), and 9.7 microM Y-27632 dihydrochloride (Tocris Bioscience, Bristol, United Kingdom, cat. 1254). The PDCs were cultured in complete DMEM/F12 media without 10 microM Y-27632 dihydrochloride for at least two passages prior to the screen. The established cell lines NCI-H1341 and […] were cultured in DMEM/F-12, HEPES (Invitrogen, cat. 11330032), 5% defined fetal bovine serum (HyClone Laboratories Inc., cat. SH30070.03), ITS premix universal culture supplement [insulin (5 microg/mL), transferrin (5 microg/mL), and selenious acid (5 ng/mL)] […]

[1] = second compound 0.1 µM, first compound 0.0316 µM
[2] = second compound 0.1 µM, first compound 0.1 µM
[3] = second compound 0.316 µM, first compound 0.0316 µM
[4] = second compound 0.316 µM, first compound 0.1 µM
[5] = second compound 1 µM, first compound 0.0316 µM
[6] = second compound 1 µM, first compound 0.1 µM
[7] = second compound 3.16 µM, first compound 0.0316 µM
[8] = second compound 3.16 µM, first compound 0.1 µM
[9] = second compound 10 µM, first compound 0.0316 µM
[10] = second compound 10 µM, first compound 0.1 µM
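Throughout, for viability, T/C: compound exposure lasted 7 days.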

Cn1ncnc1C1c2n[nH]c(=O)c3cc(F)cc(c23)NC1c1ccc(F)cc1 (stereo not given) + CC(CO)NC(=O)c1cc(-c2ccc(Cl)cc2)nn(-c2cnn(C)c2)c1=O
> 0.1 µM: IC50 (second compound 0.1 µM) | IC50 (second compound 0.316 µM) | IC50 (second compound 1 µM) | IC50 (second compound 3.16 µM) | IC50 (second compound 10 µM)
inactive: viability, T/C (second compound 0.1 µM, first compound 0.000316 µM) 109% | viability, T/C (second compound 0.1 µM, first compound 0.001 µM) 104% | viability, T/C (second compound 0.1 µM, first compound 0.00316 µM) 101% | viability, T/C (second compound 0.1 µM, first compound 0.01 µM) 103% | viability, T/C [1] 97.3% | viability, T/C [2] 99.7% | viability, T/C (second compound 0.316 µM, first compound 0.000316 µM) 97% | viability, T/C (second compound 0.316 µM, first compound 0.001 µM) 111% | viability, T/C (second compound 0.316 µM, first compound 0.00316 µM) 137% | viability, T/C (second compound 0.316 µM, first compound 0.01 µM) 113% | viability, T/C [3] 99.3% | viability, T/C [4] 93.4% | viability, T/C (second compound 1 µM, first compound 0.000316 µM) 112% | viability, T/C (second compound 1 µM, first compound 0.001 µM) 105% | viability, T/C (second compound 1 µM, first compound 0.00316 µM) 113% | viability, T/C (second compound 1 µM, first compound 0.01 µM) 105% | viability, T/C [5] 98.7% | viability, T/C [6] 99.6% | viability, T/C (second compound 3.16 µM, first compound 0.000316 µM) 114% | viability, T/C (second compound 3.16 µM, first compound 0.001 µM) 110% | viability, T/C (second compound 3.16 µM, first compound 0.00316 µM) 105% | viability, T/C (second compound 3.16 µM, first compound 0.01 µM) 93.3% | viability, T/C [7] 101% | viability, T/C [8] 89.6% | viability, T/C (second compound 10 µM, first compound 0.000316 µM) 105% | viability, T/C (second compound 10 µM, first compound 0.001 µM) 110% | viability, T/C (second compound 10 µM, first compound 0.00316 µM) 110% | viability, T/C (second compound 10 µM, first compound 0.01 µM) 112% | viability, T/C [9] 92.6% | viability, T/C [10] 97.2%

NS(=O)(=O)OCC1CC(n2ccc3c(NC4CCc5ccccc54)ncnc32)CC1O (stereo not given) + CC(CO)NC(=O)c1cc(-c2ccc(Cl)cc2)nn(-c2cnn(C)c2)c1=O
> 10 µM: IC50 (second compound 0.1 µM) | IC50 (second compound 0.316 µM) | IC50 (second compound 1 µM) | IC50 (second compound 3.16 µM) | IC50 (second compound 10 µM)
inactive: viability, T/C [1] 98.2% | viability, T/C [2] 108% | viability, T/C (second compound 0.1 µM, first compound 0.316 µM) 112% | viability, T/C (second compound 0.1 µM, first compound 1 µM) 107% | viability, T/C (second compound 0.1 µM, first compound 3.16 µM) 107% | viability, T/C (second compound 0.1 µM, first compound 10 µM) 86.9% | viability, T/C [3] 107% | viability, T/C [4] 121% | viability, T/C (second compound 0.316 µM, first compound 0.316 µM) 97.1% | viability, T/C (second compound 0.316 µM, first compound 1 µM) 104% | viability, T/C (second compound 0.316 µM, first compound 3.16 µM) 109% | viability, T/C (second compound 0.316 µM, first compound 10 µM) 78.9% | viability, T/C [5] 106% | viability, T/C [6] 118% | viability, T/C (second compound 1 µM, first compound 0.316 µM) 104% | viability, T/C (second compound 1 µM, first compound 1 µM) 111% | viability, T/C (second compound 1 µM, first compound 3.16 µM) 88.3% | viability, T/C (second compound 1 µM, first compound 10 µM) 86.7% | viability, T/C [7] 101% | viability, T/C [8] 111% | viability, T/C (second compound 3.16 µM, first compound 0.316 µM) 103% | viability, T/C (second compound 3.16 µM, first compound 1 µM) 106% | viability, T/C (second compound 3.16 µM, first compound 3.16 µM) 99.8% | viability, T/C (second compound 3.16 µM, first compound 10 µM) 89.5% | viability, T/C [9] 95.8% | viability, T/C [10] 109% | viability, T/C (second compound 10 µM, first compound 0.316 µM) 115% | viability, T/C (second compound 10 µM, first compound 1 µM) 109% | viability, T/C (second compound 10 µM, first compound 3.16 µM) 121% | viability, T/C (second compound 10 µM, first compound 10 µM) 96.7%
